How the values were obtained:
CD4+ T cells = experiment: INFγ-mediated STAT1 phosphorylation in CD4+ T cells; assay type: cell-based, mouse; details: 20 ng/mL INFγ; Salp15 50 μg/mL
Experimental: For tyrosine phosphorylation western analysis, cells were lysed in 60 mM Tris (pH 7.4) containing 150 mM NaCl, 5 mM EDTA, 1 mM EGTA, 1 mM β-glycerol phosphate, 2.5 mM sodium pyrophosphate, 25 mM NaF, 2 mM sodium orthovanadate, 1% Triton-X 100, 0.25% sodium deoxycholate, 1 mM PMSF and protease inhibitors for 15 min on ice, sonicated 4×5 sec and incubated at 37° C. for 10 min. The lysate was cleared by centrifugation and boiled in SDS-sample buffer. The samples were subjected to SDS-PAGE, transferred to a nitrocellulose membrane and immunoblotted with anti-pTyr, anti-pPLCγ1 and anti-Vav1, anti-pSrc family (Tyr^416) to measure p-Lck^394 (Alonso et al., 2004), anti-Lck, anti-pZap70 (Tyr^319), anti-Zap70, p44/42 and p44/42 (phopho-Tyr^204/Thr^202). Vav1 was immunoprecipitated using anti-Vav1 and protein A-agarose beads overnight, subjected to SDS-PAGE followed by immunoblotting with anti-pTyr or anti-Vav1. To examine the effect of Salp15 on T cell stimulation with INFγ, CD4^+ T cells were preincubated with Salp15 at 50 μg/mL followed by activation with 20 ng/mL of mouse recombinant INFγ (R & D Systems, Minneapolis, Minn., U.S.A.) for 30 min at 37° C. The cells were lysed as above and subjected to SDS-PAGE and immunoblotting with anti-pSTAT1 and anti-STAT1.

[1] = system: CD4+ T cells from DO11.10 transgenic mice; experiment: IL-2 production by DO11.10 transgenic CD4+ T cells activated with ovalbumin and APCs; assay type: cell-based, mouse; details: 0.5, 5.0 and 50 μg/mL Salp15; ovalbumin; 72 hrs
Experimental: T-cells from CD4-deficient and B6 mice (The Jackson Laboratory, Bar Harbor, Me., U.S.A.) were purified by negative selection and activated for 72 hrs using 5 μg/ml of plate bound anti-CD3 and 1 μg/ml of anti-CD28 in the presence or absence of 50 μg/mL of Salp15. DO11.10 transgenic mouse (The Jackson Laboratory) CD4^+ T cells were purified by negative selection as before and incubated in the presence of 106/mL of syngeneic mitomycin C-treated (50 μg/ml for 40 min at 37° C.) antigen presenting cells (APCs) with 10 μg/mL of ovalbumin in the presence of 0.5, 5.0 and 50 μg/mL of Salp15 for 72 hrs. The supernatants were then collected and IL-2 measured by capture ELISA following the manufacturer's instruction (BD Biosciences Pharmingen).

R-EAE in SJL/J mice = experiment: Relapsing-EAE model in PLP139-151 immunized SJL mice; assay type: in vivo, mouse
Experimental: SJL/J mice in groups of 18 are injected i.p. with 200 μg of PLP peptide 139-151 (HSLGKWLGHPDKF; SEQ ID NO: 15) (Research Genetics, Huntsville, Ala., U.S.A.). Please note that the original Cysteine has been substituted by serine for stability purposes. […] One group of mice receives daily injections of 50 μg of recombinant Salp15 produced in a Drosophila expression system, starting day 10 after immunization. This regime permits an efficient in vivo activation of PLP139-151-specific CD4^+ T cell activation. Since Salp15 has no effect on effector CD4^+ T cells (Anguita et al., 2002.), its function is expected to be circumscribed to the activation of neoreactive CD4^+ T cells. […]
At days 12 (including the 3 control mice treated with Salp15 over the course of the immunization), 14, 17, 20, 30 and 60 post-infection, 3 mice from each group are sacrificed and analyzed as follows: splenic CD4^+ T cells are purified by negative selection using biotinylated antibodies against CD8a, Ly6G, Mac-I, B220, class II (I-A^k and I-E^k) and panNK molecules (BD Biosciences Pharmingen, San Jose, Calif., U.S.A.), followed by incubation with Avidin bound to magnetic microbeads and passage through a magnetic column (Miltenyi Biotec, Auburn, Calif., U.S.A.). […]
Peripheral responses to relapsing epitopes are assessed by the analysis of delayed type hypersensitivity (DTH). […]

Salp15: secreted salivary protein from Ixodes scapularis, SEQ ID NO: 2; recombinant His-tagged, produced in Drosophila S2 cells
INFγ-mediated phosphorylation of STAT1 (CD4+ T cells): unaffected | Inhibition of IL-2 production [1]: dose dependent manner | Activation of CD4+ T cells in response to new epitopes (epitope spreading) (R-EAE in SJL/J mice; daily 50 μg Salp15 from day 10 after immunization): lowered activation | Degree of demyelination (R-EAE in SJL/J mice; histology of brains and spinal cords): lower degree of demyelination

From patent US8119589B2, “Modulation of CD4+ T cell responses by a tick saliva protein, Salp15 and polypeptides derived therefrom” (University of North Carolina at Charlotte, priority 2004, dated 2012)
